From US20090197906A1, “REVERSION OF MALIGNANT PHENOTYPE WITH 9-HYDROXY ELLIPTICINE DERIVATIVES” (priority 2006, published 2009)
Like-named read-outs stand apart in the source and are kept apart here.

Columns and labels:
[1] = system: NIH 3T3 EF cells; assay: F-actin network rescue, FITC-phalloidin fluorescence microscopy; format: cell-based; settings: non cytotoxic concentrations (100 nM and 200 nM), three days
Procedure: Malignant NIH 3T3 EF cells were seeded onto glass cover slips at a density of 2000 cells per cm^2. The next day, BA016DD537 was applied to NIH 3T3 EF cells at various non cytotoxic concentrations (100 nM and 200 nM). Three days later, cells were fixed for 10 min in PBS containing 3.7% formaldehyde at 4° C. before examination with a fluorescence microscope. The formaldehyde solution was neutralized with 50 mM NH4Cl. Extraction was carried out for 4 min with 0.4% Triton X-100 in PBS. Cells were incubated for 1 h with blocking buffer (3% bovine serum albumin in PBS) and then for 20 min with FITC-phalloidin (Sigma) at room temperature. Cover slips were mounted in Vectashieldk (Zymed) and observed through a fluorescence microscope (Nikon).

[2] = system: NIH 3T3 EF cells; assay: wound healing assay (cell motility); format: cell-based; settings: 50 nM
Procedure: (§1) Wound healing assay was performed to evaluate the effect of BA016DD537 on motility of malignant NIH 3T3 EF cells and melanoma cell lines B16F10 and B16BL6. All the cells were incubated at 37° C. in a humidified 5% CO2 atmosphere. About 100 000-200 000 cells were seeded in a 6-well culture plate and BA016DD537, at the different concentrations, was added 24 hours later. Cells were grown for 3 days to confluence about 90-95% and small scratch-wounds (about 200 μm-1 mm width) were made with a pipette tip. Cell debris were removed, then the cultures were incubated in complete medium for 10 h in the presence of the same concentration of BA016DD537. Then, the cells were fixed for 10 min in PBS containing 3.7% formaldehyde at 4° C.

[3] = system: B16BL6 melanoma cells; assay: wound healing assay (cell motility); format: cell-based; settings: non cytotoxic concentration
Procedure: as §1

[4] = system: actin in NIH 3T3 EF extract; assay: fluorescence anisotropy assay of actin dynamics in cell extract; format: biochemical; settings: for k (rate constant of F-actin elongation) / Δ mA (anisotropy enhancement, steady state F-actin): malignant NIH 3T3 EF extract
Procedure: Actin dynamics is known to be impaired in tumor cells with a subsequent decrease of F-actin to G-actin ratio. Actin dynamics has been quantified in tumor cell extracts using the fluorescence anisotropy assay which gains access to rate constant of F-actin elongation (k) and steady state concentration of F-actin (Δ mA).
All reactions were carried out at 22° C. and fluorescence anisotropy signal was recovered at 520 nm with excitation at 490 nm in a Beacon 2000 (Panvera). Alexa 488 actin (Molecular Probes) was centrifuged at 35 000 rpm for 2 h at 4° C. to sediment residual actin polymers in a Beckman L5-50B ultracentrifuge. […] 80% of the supernatant was withdrawn; the concentration was defined through fluorescence measurements (excitation at 490 nm and signal recovering at 520 nm). The ultracentrifuged actin concentration was calculated using the non ultracentrifuged Alexa 488 actin as a standard. The supernatant was aliquoted, frozen in liquid nitrogen and stored at −80° C.
Before experiment, an aliquot of ultracentrifuged Alexa 488 actin was diluted to a concentration of […] in G buffer (5 mM Tris pH 8.1, 2 mM CaCl2, 0.2 mM DTT, 0.2 mM ATP). 3 μl of diluted Alexa 488 actin was mixed in 168 μl of G buffer and actin monomers anisotropy was measured before the addition of 4 μl of polymerisation buffer (2.5 M KCl, 50 mM MgCl2, 25 mM ATP), 5 μl of G buffer in the presence or in the absence of the chemical molecule and 20 μl cellular extract of normal NIH 3T3 cells or malignant NIH 3T3 EF cells at 2 mg/ml. The final concentration of Alexa 488 actin was 4 nM. The ratio of unlabelled to labelled actin was about 140/4 nM. Measurements were made each 10 sec for 200 sec. Actin monomers anisotropy value was subtracted, yielding the anisotropy enhancement (Δ mA). The data were fitted with the equation Y=Ymax. [1−exp(−K.X)]. The curves start at zero and ascend to Ymax that corresponds to the steady state anisotropy value (Δ mA eq), with a rate constant K. Y is anisotropy values of which monomers anisotropy is subtracted and X is the time.

[5] = system: PANC-1; assay: SRB (sulforhodamine B) cell proliferation assay; format: cell-based, human
Procedure: (§2) After an incubation period, cell monolayers are fixed with 10% (wt/vol) trichloroacetic acid and stained for 30 min, after which the excess dye is removed by washing repeatedly with 1% (vol/vol) acetic acid. The protein-bound dye is dissolved in 10 mM Tris base solution for optic density determination (OD) at 510 nm using a microplate reader.
(§3) The proliferation rates were calculated from the OD readings using the untreated cells as 100%.
(§4) The effects BA016FZ539 on the growth of MIA PaCa-2 and PANC-1 pancreatic cells were tested over a range of concentrations from 500 μM to 0.16 μM and measured by using the SRB calorimetric assay.
(§5) About 5000 MIA PaCa-2 or PANC-1 cells were seeded in a 96-well culture plate while adding increasing concentrations of BA016FZ539.
(§6) Growth studies were performed using both MTT and SRB calorimetric assay (Sigma). About 1500 B16F10 or 3000 pancreatic cells (MIA PaCa-2 and PANC1) were seeded in a 96-well culture plate before adding increasing concentrations of monomesylate or bimesylate.
(§7) The plates were incubated at 37° C. for 3 days and then were treated depending on SRB or MTT protocols (see material and methods).
(§8) In these two cases, the proliferation rates were calculated from the OD readings using the untreated cells as 100%.

[6] = system: Mia Paca-2; assay: SRB (sulforhodamine B) cell proliferation assay; format: cell-based, human
Procedure: as §2, §3, §4, §5, §6, §7, §8

[7] = system: B16F10 cell pulmonary metastases; assay: antimetastatic activity, B16F10 pulmonary metastases after i.v. injection; format: in vivo, mice
Procedure: In order to assess the anti-invasive property, the effect of 2-(beta piperidino-2-ethyl)-9-hydroxyellipticinium methanesulfonate on this process has been tested.
100 μl of a B16F10 cellular suspension (4.10^5 cells) were injected using i.v. route into the retro-orbital sinus of the mice. The 2-(beta piperidino-2-ethyl)-9-hydroxyellipticinium methanesulfonate (BA016FZ539) solution was administrated i.v to mice 24 hours and 72 hours after cell injection at a dose of 5 mg/Kg (first experiment) and 7.5 mg/kg (second experiment). In control group, mice were injected iv with physiological serum. Seven days later, the mice were sacrificed, the lungs were excised and metastatic nodules were counted under a dissecting microscope.

[8] = system: B16F10; assay: SRB (sulforhodamine B) cell proliferation assay; format: cell-based, murine; settings: B16F10 (Example 11); read-out: IC50 (SRB Test-72 h)
Procedure: as §6, §7, §8

In the case of `Cc1c2cc[n+](CCN3CCCCC3)cc2c(C)c2c1[nH]c1ccc(O)cc12.[Cl-]` [BA016DD537, 2-(β-piperidinoethyl)-9-hydroxyellipticinium chloride], the “rebuilding of actin network / morphology” value [1] is reported as “able to rebuilt actin network in tumor cells at non cytotoxic concentration”, the “inhibition of cell migration” value [2] is reported as “complete inhibition” and the “inhibition of cell motility” value [3] is reported as “inhibition of the B16BL6 cells motility”. The “effect on actin-F elongation rate constant and actin-F steady state value” ([4]; NIH 3T3 EF cytosolic fractions) was “increases the actin-F elongation rate constant and the actin-F steady state value”, the “k (rate constant of F-actin elongation)” value ([4]; compound at 100 nM) was 0.1636 s⁻¹ and the “Δ mA (anisotropy enhancement, steady state F-actin)” value ([4]; compound at 100 nM) was 52.38. The “k (rate constant of F-actin elongation)” value ([4]; compound at 200 nM) was 0.1737 s⁻¹ and the “Δ mA (anisotropy enhancement, steady state F-actin)” value ([4]; compound at 200 nM) was 61.17.

Work on `CS(=O)(=O)[O-].Cc1c2cc[n+](CCN3CCCCC3)cc2c(C)c2c1[nH]c1ccc(O)cc12` [BA016FZ539, 2-(betapiperidino-2-ethyl)-9-hydroxyellipticinium methanesulfonate] yielded an IC50 ([5]; PANC-1 (Example 11), read-out: IC50 (SRB Test-72 h)) of 50.4 µM, an IC50 ([5]; PANC-1, viability 72 h, mean +/− SEM (Example 9), read-out: IC50 (μM) SRB) of 20.7 µM and an IC50 ([6]; MIA PaCA-2, viability 72 h, mean +/− SEM (Example 9), read-out: IC50 (μM) SRB) of 10.2 µM. For the same compound, the IC50 ([6]; Mia Paca-2 (Example 11), read-out: IC50 (SRB Test-72 h)) was 5.6 µM, the “Inhibition of pulmonary metastases development (% of control values)” value ([7]; Experiment 1, 5 mg/kg/inj. i.v. J1, J3, p = 0.0904) was 21% (p = 0.0904) and the “Inhibition of pulmonary metastases development (% of control values)” value ([7]; Experiment 2, 7.5 mg/kg/inj. i.v. J1, J3, p = 0.3269) was 39.6% (p = 0.3269). The IC50 [8] was 4.3 µM.
